Experimental data taken from ChEMBL document CHEMBL5543174, “A Nonbactericidal Anionic Antimicrobial Peptide Provides Prophylactic and Therapeutic Efficacies against Bacterial Infections in Mice by Immunomodulatory-Antithrombotic Duality” (J Med Chem, 2024).
Activity calls are given as the source filed them. The rule behind the calls is not given here.

Experiments:
[1] = tested on: Peritoneal macrophage; experiment: Immunoregulatory activity in mouse Peritoneal macrophage assessed as upregulation of JNK phosphorylation incubated for 1 hr by Western blotting analysis; assay type: functional, cell-based
[2] = tested on: Mus musculus; experiment: Induction of chemotaxis in C57BL/6 mouse assessed as upregulation of CXCL1 expression in peritoneal lavage at 10 mg/kg,ip administration measured at 5 to 24 hrs by ELISA; assay type: functional, organism-based; conditions: time 5-24 hrs
[3] = tested on: Lymphocyte; experiment: Immunomodulatory activity in mouse mesenteric lymph node derived lymphocyte assessed as increase in lymphocyte proliferation at < 200 ug/ml incubated for 24 hrs by CCK-8 assay; assay type: functional, cell-based; conditions: dose < 200.0 µg/ml
[4] = tested on: Peritoneal macrophage; experiment: Immunomodulatory activity in mouse Peritoneal macrophage assessed as decrease in LPS-induced IL-1beta production at 25 to 100 ug/ml incubated for 6 hrs by ELISA; assay type: functional, cell-based; conditions: dose 25-100 µg/ml
[5] = tested on: Staphylococcus aureus; experiment: Antibacterial activity against Staphylococcus aureus ATCC 25923 infected in C57BL/6 mouse assessed as reduction in TNF-alpha level in peritoneal fluid at 10 mg/kg,ip pre-administrated 5 hrs before bacterial infection measured after 24 hrs by ELISA; assay type: functional, organism-based; conditions: time 29.0 hrs
[6] = tested on: Neutrophil; experiment: Induction of degranulation in mouse bone marrow derived neutrophil assessed as increase in BPI release at 25 to 100 ug/ml incubated for 6 hrs by ELISA; assay type: functional, cell-based; conditions: dose 25-100 µg/ml
[7] = tested on: Neutrophil; experiment: Induction of degranulation in mouse bone marrow derived neutrophil assessed as increase in lactoferrin release at 25 to 100 ug/ml incubated for 6 hrs by ELISA; assay type: functional, cell-based; conditions: dose 25-100 µg/ml
[8] = tested on: Escherichia coli; experiment: Antibacterial activity against Escherichia coli ATCC 25922 infected in C57BL/6 mouse assessed as reduction in IL-1beta level in serum at 10 mg/kg,ip administrated 5 hrs after bacterial infection measured after 24 hrs by ELISA; assay type: functional, organism-based; conditions: time 19.0 hrs
[9] = tested on: Escherichia coli; experiment: Antibacterial activity against Carbapenem-resistant Escherichia coli infected in C57BL/6 mouse assessed as reduction in IL-1beta level in peritoneal fluid at 10 mg/kg,ip administrated 5 hrs after bacterial infection measured after 24 hrs by ELISA; assay type: functional, organism-based; conditions: time 19.0 hrs
[10] = tested on: Escherichia coli; experiment: Antibacterial activity against Escherichia coli ATCC 25922 infected in C57BL/6 mouse assessed as reduction in inflammatory injury in lung at 10 mg/kg,ip administrated 5 hrs after bacterial infection measured after 24 hrs by hematoxylin and eosin staining based analysis; assay type: functional, organism-based; conditions: time 19.0 hrs
[11] = tested on: Staphylococcus aureus; experiment: Antibacterial activity against Methicillin-resistant Staphylococcus aureus infected in C57BL/6 mouse with cyclophosphamide-induced neutrophil depletion model assessed as reduction of bacterial burden in peritoneal cavity at 10 mg/kg,ip administrated 5 hrs after bacterial infection measured after 24 hrs; assay type: functional, organism-based; conditions: time 19.0 hrs
[12] = tested on: Escherichia coli; experiment: Antibacterial activity against Carbapenem-resistant Escherichia coli infected in C57BL/6 mouse assessed as reduction in IL-1beta level in serum at 10 mg/kg,ip pre-administrated 5 hrs before bacterial infection measured after 24 hrs by ELISA; assay type: functional, organism-based; conditions: time 29.0 hrs
[13] = tested on: Escherichia coli; experiment: Antibacterial activity against Carbapenem-resistant Escherichia coli infected in C57BL/6 mouse assessed as reduction in IL-1beta level in peritoneal fluid at 10 mg/kg,ip pre-administrated 5 hrs before bacterial infection measured after 24 hrs by ELISA; assay type: functional, organism-based; conditions: time 29.0 hrs
[14] = tested on: Staphylococcus aureus; experiment: Antibacterial activity against Methicillin-resistant Staphylococcus aureus infected in C57BL/6 mouse assessed as reduction in bacterial load at 10 mg/kg,ip administrated 5 hrs after bacterial infection; assay type: functional, organism-based
[15] = tested on: Staphylococcus aureus; experiment: Antibacterial activity against Methicillin-resistant Staphylococcus aureus infected in C57BL/6 mouse assessed as reduction in inflammatory injury in lung at 10 mg/kg,ip pre-administrated 5 hrs before bacterial infection measured after 24 hrs by hematoxylin and eosin staining based analysis; assay type: functional, organism-based; conditions: time 29.0 hrs
[16] = tested on: Mus musculus; experiment: Inhibition of fibrin formation in mouse infected with Methicillin-resistant Staphylococcus aureus assessed as reduction in fibrin deposition in lung at 10 mg/kg,ip pre-administrated 5 hrs before bacterial infection measured after 24 hrs by immunohistochemical analysis; assay type: functional, organism-based; conditions: time 29.0 hrs
[17] = tested on: Neutrophil; experiment: Induction of degranulation in mouse bone marrow derived neutrophil assessed as increase in BD-2 release at 25 to 100 ug/ml incubated for 6 hrs by ELISA; assay type: functional, cell-based; conditions: dose 25-100 µg/ml
[18] = tested on: Candida albicans; experiment: Antimicrobial activity against Candida albicans ATCC 2002 assessed as reduction in metabolic activity at < 200 ug/ml incubated for 1 to 4 hrs by CCK-8 assay; assay type: functional, organism-based; conditions: dose < 200.0 µg/ml, time 1-4 hrs
[19] = tested on: Peritoneal macrophage cell; experiment: Induction of chemotaxis in mouse Peritoneal macrophage assessed as upregulation of MCP-1 production at 100 ug/ml preincubated with WRW4 followed by compound addition by ELISA; assay type: functional, cell-based; conditions: dose 100.0 µg/ml
[20] = tested on: Peritoneal macrophage; experiment: Immunomodulatory activity in mouse Peritoneal macrophage assessed as decrease in LPS-induced IL-6 production at 25 to 100 ug/ml incubated for 6 hrs by ELISA; assay type: functional, cell-based; conditions: dose 25-100 µg/ml
[21] = tested on: Escherichia coli; experiment: Antimicrobial activity against Escherichia coli ATCC 25922 assessed as reduction in metabolic activity at < 200 ug/ml incubated for 1 to 4 hrs by CCK-8 assay; assay type: functional, organism-based; conditions: dose < 200.0 µg/ml, time 1-4 hrs
[22] = tested on: Staphylococcus aureus; experiment: Antibacterial activity against Methicillin-resistant Staphylococcus aureus infected in C57BL/6 mouse with clodronate liposome-induced monocyte depletion model assessed as reduction of bacterial burden in peritoneal cavity at 10 mg/kg,ip pre-administrated 5 hrs before bacterial infection measured after 24 hrs; assay type: functional, organism-based; conditions: time 29.0 hrs
[23] = tested on: Peritoneal macrophage; experiment: Immunomodulatory activity in mouse Peritoneal macrophage assessed as decrease in LTA-induced TNF-alpha production at 25 to 100 ug/ml incubated for 6 hrs by ELISA; assay type: functional, cell-based; conditions: dose 25-100 µg/ml
[24] = tested on: Mus musculus; experiment: Immunomodulatory activity in clodronate liposome immunosuppressed C57BL/6 mouse with neutrophil depletion model assessed as change in B-lymphocytes in peritoneal lavage at 10 mg/kg,ip administration measured after 5 to 24 hrs by flow cytometry; assay type: functional, organism-based; conditions: time 5-24 hrs
[25] = tested on: Mus musculus; experiment: Immunomodulatory activity in cyclophosphamide immunosuppressed C57BL/6 mouse with neutrophil depletion model assessed as change in T-lymphocytes in peritoneal lavage at 10 mg/kg,ip administration measured after 5 to 24 hrs by flow cytometry; assay type: functional, organism-based; conditions: time 5-24 hrs
[26] = tested on: Staphylococcus haemolyticus; experiment: Antimicrobial activity against Staphylococcus haemolyticus ATCC 29970 assessed as inhibition of microbial growth at <= 200 ug/ml incubated for 18 hrs by micro-broth dilution method; assay type: functional, organism-based; conditions: dose <= 200.0 µg/ml
[27] = tested on: Mus musculus; experiment: Anticoagulation activity in mouse assessed as change in plasma AT-III expression at 10 mg/kg,ip measured after 24 hrs by ELISA; assay type: functional, organism-based
[28] = tested on: Neutrophil; experiment: Induction of degranulation in mouse bone marrow derived neutrophil assessed as increase in CRAMP release at 25 to 100 ug/ml incubated for 6 hrs by ELISA; assay type: functional, cell-based; conditions: dose 25-100 µg/ml
[29] = tested on: Mus musculus; experiment: Anticoagulation activity in mouse infected with Carbapenem-resistant Escherichia coli assessed as increase in plasma TFPI expression at 10 mg/kg,ip administrated 5 hrs after bacterial infection measured after 24 hrs by ELISA; assay type: functional, organism-based; conditions: time 19.0 hrs
[30] = tested on: Peritoneal macrophage; experiment: Induction of chemotaxis in mouse Peritoneal macrophage assessed as increase in macrophage migration incubated for 8 hrs by crystal violet staining based indirect transwell assay; assay type: functional, cell-based
[31] = tested on: Escherichia coli; experiment: Antibacterial activity against Carbapenem-resistant Escherichia coli infected in C57BL/6 mouse with cyclophosphamide-induced neutrophil depletion model assessed as decrease in bacterial burden in peritoneal cavity at 10 mg/kg,ip pre-administrated 5 hrs before bacterial infection measured after 24 hrs; assay type: functional, organism-based; conditions: time 29.0 hrs
[32] = tested on: Staphylococcus aureus; experiment: Antibacterial activity against Methicillin-resistant Staphylococcus aureus infected in C57BL/6 mouse assessed as reduction in IL-6 level in serum at 10 mg/kg,ip administrated 5 hrs after bacterial infection measured after 24 hrs by ELISA; assay type: functional, organism-based; conditions: time 19.0 hrs

CC[C@H](C)[C@H](NC(=O)[C@@H]1CSSC[C@H](NC(=O)[C@H](CCC(=O)O)NC(=O)[C@@H](NC(=O)[C@H](CCCCN)NC(=O)[C@H](Cc2c[nH]cn2)NC(=O)[C@@H](NC(=O)[C@H](CCCCN)NC(=O)[C@H](CCC(=O)O)NC(=O)[C@H](C)NC(=O)[C@H](CCC(=O)O)NC(=O)[C@H](CCC(=O)O)NC(=O)[C@H](CCC(=O)O)NC(=O)[C@H](C)N)[C@@H](C)O)[C@@H](C)O)C(=O)N[C@@H](CC(C)C)C(=O)N[C@@H](CCC(=O)O)C(=O)N1)C(=O)N[C@@H](Cc1ccccc1)C(=O)N[C@H](C(=O)N[C@@H](CC(C)C)C(=O)N[C@@H](CC(C)C)C(=O)N1CCC[C@H]1C(=O)N1CCC[C@@H]1C(=O)N[C@H](C)C(=O)O)[C@@H](C)O
Activity [1]: Dose-Dependent Effect
Activity [2]: inactive
Activity [3]: inactive
Activity [4]: inactive
Activity [5]: Active
Activity [6]: Active
Activity [7]: Active
Activity [8]: Active
Activity [9]: Active
Activity [10]: Active
Activity [11]: inactive
Activity [12]: Active
Activity [13]: Active
Activity [14]: Active
Activity [15]: Active
inhibition [16]: Active
Activity [17]: inactive
Activity [18]: inactive
Activity [19]: Active
Activity [20]: inactive
Activity [21]: inactive
Activity [22]: inactive
Activity [23]: inactive
Activity [24]: inactive
Activity [25]: inactive
Activity [26]: inactive
Activity [27]: inactive
Activity [28]: Active
Activity [29]: Active
Activity [30]: Dose-Dependent Effect
Activity [31]: inactive
Activity [32]: Active
